{"source": "patent US7659304B2", "about": "“Tryptophan derivative and application thereof” (priority 2005, dated 2010)", "key": {"osteoblasts [1]": {"system": "osteoblasts", "experiment": "Influence on osteoblasts: alkaline phosphatase (ALP) activity in cultured goldfish scales", "format": "cell-based", "details": "for ALP activity: Amount of para-nitrophenol produced (mean ± standard error): 10^−6 M, scales cultured at 25° C. for 6 hours, control 1.37 ± 0.18", "protocol": "The influence of the tryptophan derivatives on bone cells was tested according to a method described in N. Suzuki and A. Hattori, J. Pineal Res., 33, 253-258 (2002). Required pieces of scales were ablated from female goldfish (body weight: around 30 g) under anesthesia with MS222 (ethyl 3-aminobenzoate, methane sulfonic acid salt) (Aldrich). The scales were washed twice with an Eagle's minimum essential medium (Dainippon Pharmaceutical Co., Ltd.) containing 1% antibiotic (penicillin-streptomycin mixture). The same medium was added at 1 ml/well to a 24-well plate. The scales were added at several pieces (usually eight)/well thereto. Each tryptophan derivative was added at a concentration of 10^−6 M to each well. Subsequently, these scales were cultured at 25° C. for 6 hours. A tryptophan derivative-free group (control) was also prepared to compare the effects on bone cells. In this test, two groups, one for osteoclasts and the other for osteoblasts, were used for the tryptophan derivatives and compared them with the control. To ensure the obtained results, the duplicate test was performed. Thus, in the 24-well plate, 6 tryptophan derivatives can be examined. After culture, the medium was removed. The scales were fixed by the addition of 0.05 M cacodylic acid buffer (pH 7.4) containing 10% formalin. These scales were stored in 0.05 M cacodylic acid buffer at 4° C. until enzyme activity measurement. • (1) […] The scales treated by fixation were moved and weighed. After measurement, the scales were put into a 96-well microplate. To each well, 2001 of 100 mM tris-HCl buffer (pH 9.5) containing 10 mM para-nitrophenol phosphate (substrate), 1 mM magnesium chloride, and 0.1 mM zinc chloride was added. Reaction was performed at 25° C. for 15 minutes and terminated by the addition of a 3 M sodium hydroxide aqueous solution (50 μl). Then, 150 μl of the solution after the completion of reaction was transferred to another microplate. The amount of p-NP produced by ALP was measured with a spectrophotometer (405 nm) to determine the activity."}, "osteoclasts [2]": {"system": "osteoclasts", "experiment": "Influence on osteoclasts: tartrate-resistant acid phosphatase (TRAP) activity in cultured goldfish scales", "format": "cell-based", "details": "for TRAP activity: Amount of para-nitrophenol produced (mean ± standard error): 10^−6 M, scales cultured at 25° C. for 6 hours, control 0.700 ± 0.041", "protocol": "The influence of the tryptophan derivatives on bone cells was tested according to a method described in N. Suzuki and A. Hattori, J. Pineal Res., 33, 253-258 (2002). Required pieces of scales were ablated from female goldfish (body weight: around 30 g) under anesthesia with MS222 (ethyl 3-aminobenzoate, methane sulfonic acid salt) (Aldrich). The scales were washed twice with an Eagle's minimum essential medium (Dainippon Pharmaceutical Co., Ltd.) containing 1% antibiotic (penicillin-streptomycin mixture). The same medium was added at 1 ml/well to a 24-well plate. The scales were added at several pieces (usually eight)/well thereto. Each tryptophan derivative was added at a concentration of 10^−6 M to each well. Subsequently, these scales were cultured at 25° C. for 6 hours. A tryptophan derivative-free group (control) was also prepared to compare the effects on bone cells. In this test, two groups, one for osteoclasts and the other for osteoblasts, were used for the tryptophan derivatives and compared them with the control. To ensure the obtained results, the duplicate test was performed. Thus, in the 24-well plate, 6 tryptophan derivatives can be examined. After culture, the medium was removed. The scales were fixed by the addition of 0.05 M cacodylic acid buffer (pH 7.4) containing 10% formalin. These scales were stored in 0.05 M cacodylic acid buffer at 4° C. until enzyme activity measurement. • (1) Influence on Osteoclasts: Tartrate-Resistant Acid Phosphatase (TRAP) Activity Measurement The scales treated by fixation were moved and weighed. After measurement, the scales were put into a 96-well microplate. To each well, 2001 of 100 mM acetate buffer (pH 5.3) containing 20 mM tartrate and 10 mM para-nitrophenol phosphate (substrate) was added. Reaction was performed at 25° C. for 20 minutes and subsequently terminated by the addition of a 3 M sodium hydroxide aqueous solution (50±1). Then, […] of the solution after the completion of reaction was transferred to another microplate. The amount of para-nitrophenol (p-NP) produced by TRAP was measured with a spectrophotometer (405 nm). The osteoclast activity was indicated as the amount of p-NP produced by the decomposition of para-nitrophenol phosphate per g of scale per minute."}, "[3]": {"system": "bone metabolism of ovariectomized model rat", "experiment": "Effect on bone metabolism of ovariectomized model rat (femur pQCT)", "format": "in vivo", "details": "OVX rats, 0.17 mg/rat by gavage once a day for 6 weeks", "protocol": "A test substance was the compound No. 4 ((S)-(+)-N-acetyl-2,4,6-tribromo-5-methoxytryptophan methyl ester), which was a white powder having a molecular weight of 527, and was stored at room temperature. Commercially available dimethyl sulfoxide (DMSO, Wako Pure Chemical Industries, Ltd.) was purchased as a solvent and stored at room temperature. • 2. Method for Preparing Test Substance\nThe solution of the test substance was administered in a volume of 100 μL/rat in consideration of the toxicity of the solvent. For a dose of 0.17 mg of the test substance (compound No. 4)/rat, 86.6 mg of the test substance was weighed and dissolved in 50.9 mL of the solvent (0.17 mg/0.1 mL). • 3. Animal Used and Raising Conditions\nFive-week-old female SPF SD (Crl:SD) rats were obtained from Charles River Laboratories Japan, Inc. After seven-day acclimation and quarantine, 6-week-old ovariectomized models were prepared. Administration was performed from the day following model preparation.\nThe animals were raised in the rat/mouse room of a test laboratory set to a temperature of 24±3° C., a humidity of 50±20%, the number of ventilations of approximately 10 to 20 times/hour, a lighting time of 12 hours/day (8:00 light on, 20:00 light off), and an illuminance of 150 to 300 Lux. • 4. Administration Method\nThe test substance was administered once a day for 6 weeks by gavage administration to the rats without anesthesia under non-fasting by use of a feeding needle made of a metal and a syringe barrel. In this context, 1 week is defined as 7 days, and the day following ovariectomy when the administration was initiated is defined as Day 1. The amount of the solution administered was set to 0.1 mL/rat.\nThe bone densities of the left femurs were measured using a peripheral bone density measurement apparatus PQCT (abbreviation of peripheral Quantitative Computed Tomography, XCT-Research SA+, Stratec). For cancellous bone parameter measurement, the metaphyseal region was sliced at a distance of 3 mm from the distal growth cartilage. Alternatively, for cortical bone parameter measurement, the diaphyseal region was sliced at a distance of 13 mm therefrom. The measurement parameters were a bone density (total density and cancellous bone), an area (total area and cancellous bone), and SSI (Stress Strain Index) for the metaphyseal region and were the bone density, area, and thickness of the cortical bone, a periosteal circumference length, an endosteal circumference length, and SSI for the diaphyseal region. Software used was Rev.5.50e."}, "osteoclasts [4]": {"system": "osteoclasts", "details": "literature report; cited from earlier work"}, "osteoblasts [5]": {"system": "osteoblasts", "details": "literature report; cited from earlier work"}}, "data": [{"smiles": "COC(=O)[C@H](Cc1c(Br)n(Cc2ccccc2)c2cc(Br)c(OC)c(Br)c12)NC(C)=O", "note": "[Compound 8, (S)-(+)-N-acetyl-1-benzyl-2,4,6-tribromo-5-methoxytryptophan methyl ester]", "values": [{"measurement": "ALP activity: Amount of para-nitrophenol produced (mean ± standard error)", "setting": "osteoblasts [1]", "value": "1.17 ± 0.32 nmol/g of scale/min"}, {"measurement": "TRAP activity: Amount of para-nitrophenol produced (mean ± standard error)", "setting": "osteoclasts [2]", "value": "0.829 ± 0.047 nmol/g of scale/min"}]}, {"smiles": "COC(=O)[C@H](Cc1c(Br)[nH]c2cc(Br)c(OC)c(Br)c12)NC(C)=O", "note": "[Compound 4, (S)-(+)-N-acetyl-2,4,6-tribromo-5-methoxytryptophan methyl ester]", "values": [{"measurement": "ALP activity: Amount of para-nitrophenol produced (mean ± standard error)", "setting": "osteoblasts [1]", "value": "2.62 ± 0.20 nmol/g of scale/min"}, {"measurement": "bone density of the cancellous bone (metaphyseal region) compared with OVX + Vehicle group (in words)", "setting": "[3]", "value": "increased"}, {"measurement": "change in the diaphyseal region compared with OVX + Vehicle group (in words)", "setting": "[3]", "value": "no change"}, {"measurement": "total bone density of the metaphyseal region compared with OVX + Vehicle group (in words)", "setting": "[3]", "value": "increased"}, {"measurement": "Diaphyseal region SSI Polar", "setting": "[3]; left femur, OVX + Vehicle 6.753 ± 0.380", "value": "6.877 ± 0.605"}, {"measurement": "Diaphyseal region Endosteal circumference length", "setting": "[3]; left femur, OVX + Vehicle 8.360 ± 0.467", "value": "8.260 ± 0.666", "unit": "mm"}, {"measurement": "Metaphyseal region Area Cancellous bone", "setting": "[3]; left femur, OVX + Vehicle 9.47 ± 1.52", "value": "7.44 ± 0.47", "unit": "mm^2"}, {"measurement": "Metaphyseal region SSI Polar", "setting": "[3]; left femur, OVX + Vehicle 9.801 ± 0.574", "value": "11.474 ± 0.346"}, {"measurement": "Diaphyseal region Periosteal circumference length", "setting": "[3]; left femur, OVX + Vehicle 11.819 ± 0.333", "value": "11.729 ± 0.455", "unit": "mm"}, {"measurement": "Metaphyseal region Area Total area", "setting": "[3]; left femur, OVX + Vehicle 21.69 ± 1.61", "value": "23.67 ± 1.34", "unit": "mm^2"}, {"measurement": "Metaphyseal region Bone density Cancellous bone", "setting": "[3]; left femur, OVX + Vehicle 192.9 ± 24.6", "value": "253.4 ± 2.9", "unit": "mg/mL"}, {"measurement": "Metaphyseal region Bone density Total density", "setting": "[3]; left femur, OVX + Vehicle 473.1 ± 29.3", "value": "520.4 ± 31.7", "unit": "mg/mL"}, {"measurement": "Diaphyseal region Thickness", "setting": "[3]; cortical bone, left femur, OVX + Vehicle 0.551 ± 0.021", "value": "0.552 ± 0.038", "unit": "mm"}, {"measurement": "Diaphyseal region Area", "setting": "[3]; cortical bone, left femur, OVX + Vehicle 5.55 ± 0.02", "value": "5.50 ± 0.17", "unit": "mm^2"}, {"measurement": "Diaphyseal region Bone density", "setting": "[3]; cortical bone, left femur, OVX + Vehicle 1265.7 ± 15.9", "value": "1254.9 ± 14.6", "unit": "mg/mL"}, {"measurement": "melting point", "value": "198 to 199", "unit": "°C"}, {"measurement": "TRAP activity: Amount of para-nitrophenol produced (mean ± standard error)", "setting": "osteoclasts [2]", "value": "0.699 ± 0.064 nmol/g of scale/min"}]}, {"smiles": "C#CCn1c(Br)c(C[C@H](NC(C)=O)C(=O)OC)c2c(Br)c(OC)c(Br)cc21", "note": "[Compound 7, (S)-(+)-N-acetyl-2,4,6-tribromo-5-methoxy-1-propargyltryptophan methyl ester]", "values": [{"measurement": "ALP activity: Amount of para-nitrophenol produced (mean ± standard error)", "setting": "osteoblasts [1]", "value": "2.50 ± 0.51 nmol/g of scale/min"}, {"measurement": "TRAP activity: Amount of para-nitrophenol produced (mean ± standard error)", "setting": "osteoclasts [2]", "value": "0.838 ± 0.056 nmol/g of scale/min"}]}, {"smiles": "COc1ccc2[nH]cc(CCNC(C)=O)c2c1", "note": "[Melatonin, N-acetyl-5-methoxytryptamine, reference compound]", "values": [{"measurement": "action on osteoclasts (in words), reported in Non-Patent Document 1", "setting": "osteoclasts [4]", "value": "inhibitory"}, {"measurement": "ALP activity: Amount of para-nitrophenol produced (mean ± standard error)", "setting": "osteoblasts [1]", "value": "1.06 ± 0.17 nmol/g of scale/min"}, {"measurement": "action on osteoblasts (in words)", "setting": "osteoblasts [1]; conclusion from Table 2", "value": "inhibitory"}, {"measurement": "action on osteoblasts (in words), reported in Non-Patent Document 1", "setting": "osteoblasts [5]", "value": "inhibitory"}, {"measurement": "TRAP activity: Amount of para-nitrophenol produced (mean ± standard error)", "setting": "osteoclasts [2]", "value": "0.467 ± 0.052 nmol/g of scale/min"}, {"measurement": "action on osteoclasts (in words)", "setting": "osteoclasts [2]; conclusion from Table 1", "value": "inhibitory"}]}, {"smiles": "COC(=O)[C@H](Cc1c(Br)[nH]c2c(Br)cc(OC)c(Br)c12)NC(C)=O", "note": "[Compound 3, (S)-(+)-N-acetyl-2,4,7-tribromo-5-methoxytryptophan methyl ester]", "values": [{"measurement": "melting point", "value": "218 to 220", "unit": "°C"}]}, {"smiles": "C=CCn1c(Br)c(C[C@H](NC(C)=O)C(=O)OC)c2c(Br)c(OC)c(Br)cc21", "note": "[Compound 6, (S)-(+)-N-acetyl-1-allyl-2,4,6-tribromo-5-methoxytryptophan methyl ester]", "values": [{"measurement": "ALP activity: Amount of para-nitrophenol produced (mean ± standard error)", "setting": "osteoblasts [1]", "value": "2.39 ± 0.40 nmol/g of scale/min"}, {"measurement": "TRAP activity: Amount of para-nitrophenol produced (mean ± standard error)", "setting": "osteoclasts [2]", "value": "0.882 ± 0.106 nmol/g of scale/min"}]}, {"smiles": "COC(=O)[C@H](Cc1c(Br)n(C(=O)OC(C)(C)C)c2cc(Br)c(OC)c(Br)c12)NC(C)=O", "note": "[Compound 5, (S)-(+)-N-acetyl-2,4,6-tribromo-1-t-butoxycarbonyl-5-methoxytryptophan methyl ester]", "values": [{"measurement": "ALP activity: Amount of para-nitrophenol produced (mean ± standard error)", "setting": "osteoblasts [1]", "value": "2.48 ± 0.42 nmol/g of scale/min"}, {"measurement": "TRAP activity: Amount of para-nitrophenol produced (mean ± standard error)", "setting": "osteoclasts [2]", "value": "0.747 ± 0.063 nmol/g of scale/min"}]}, {"smiles": "COC(=O)[C@H](Cc1c(Br)[nH]c2cc(Br)c(OC)cc12)NC(C)=O", "note": "[Compound 2, (S)-(+)-N-acetyl-2,6-dibromo-5-methoxytryptophan methyl ester]", "values": [{"measurement": "melting point", "value": "174 to 175", "unit": "°C"}]}]}
